Reference: patent US10124012B2, “Method for treatment of hyperglycemia and hyperlipidemia” (priority 2016, dated 2018)

Assays:
[1] = tested on: high-fat diet-fed C57BL/6J mouse; assay: Hepatic lipids in HFD-fed mice; type: in vivo, C57BL/6J mice; details: HF + Feno: fenofibrate 250 mg/kg/day oral gavage 4 weeks
Protocol: Animal studies were performed and approved under the guidelines of the Institutional Animal Care and Use Committee in Taiwan (12 Mar. 2015). […] After acclimatization for one week, all of the mice were randomly assigned into a control (CON) group and a high-fat diet (HFD) group. For the following 12 weeks, the CON group (n=9) received a control diet or a low-fat diet (Diet 12450B, Research Diets, Inc., New Brunswick, N.J., USA), while the HFD group (n=54) received a high-fat diet (Diet 12451, Research Diets, New Brunswick, N.J., USA). […] After HFD feeding for 8 weeks, the HFD group was randomly subdivided into six groups (n=9 per group) receiving different treatments and fed on HFD. […] The HF+AnK1, HF+AnK2, and HF+AnK3 groups are collectively termed AnK-treated HFD groups in the following examples. The CON mice were administered vehicle. All treatments were administered via oral gavage once daily. After administration for 4 weeks, all mice were fasted 12 hours, and blood was collected from the retro-orbital sinus under ether anesthesia. At the end of the experiment, the mice were sacrificed via carbon dioxide inhalation. Liver, adipose tissue, and skeletal muscle were collected and immediately stored at −80° C. for target gene analysis.

[2] = tested on: high-fat diet-fed C57BL/6J mouse; assay: Histopathology of liver (hepatocellular ballooning); type: in vivo, C57BL/6J mice; details: grade 0 absence, 1 few cells, 2 many cells (Table 4); HF + Feno: fenofibrate 250 mg/kg/day oral gavage 4 weeks, HFD-fed mice
Protocol: (§1) Animal studies were performed and approved under the guidelines of the Institutional Animal Care and Use Committee in Taiwan (12 Mar. 2015). The 4-week old male C57BL/6J mice (total amount n=63) were obtained from the National Laboratory Animal Center (Taipei, Taiwan). After acclimatization for one week, all of the mice were randomly assigned into a control (CON) group and a high-fat diet (HFD) group. For the following 12 weeks, the CON group (n=9) received a control diet or a low-fat diet (Diet 12450B, Research Diets, Inc., New Brunswick, N.J., USA), while the HFD group (n=54) received a high-fat diet (Diet 12451, Research Diets, New Brunswick, N.J., USA). The low-fat diet was composed of protein 20%, carbohydrate 70% and fat 10%, whereas the high-fat diet was composed of protein 20%, carbohydrate 35%, and fat 45% (of total energy, % kcal). After HFD feeding for 8 weeks, the HFD group was randomly subdivided into six groups (n=9 per group) receiving different treatments and fed on HFD. […] The HF+AnK1, HF+AnK2, and HF+AnK3 groups are collectively termed AnK-treated HFD groups in the following examples. The CON mice were administered vehicle. All treatments were administered via oral gavage once daily. After administration for 4 weeks, all mice were fasted 12 hours, and blood was collected from the retro-orbital sinus under ether anesthesia. At the end of the experiment, the mice were sacrificed via carbon dioxide inhalation. Liver, adipose tissue, and skeletal muscle were collected and immediately stored at −80° C. for target gene analysis.
(§2) Parts of visceral adipose and liver specimens were fixed with formalin (200 g/kg) neutral buffered solution and embedded in paraffin. A series of 8 μm-thick sections was cut and stained with hematoxylin and eosin. For microscopic examination, a microscope (Olympus BX51, Olympus, Tokyo, Japan) was used and the images were photographed.
On the basis of previous study, the degree of hepatocellular ballooning is defined in TABLE 4: […]

membrane GLUT4 [3] = assay: Western blotting of skeletal muscular membrane GLUT4 in HFD-fed mice; type: in vivo, C57BL/6J mice; details: skeletal muscle, AnK 10, 20, 40, Feno 250, Metf 300 mg/kg/day, as compared with the HF group
Excerpt: (§3) The 4-week old male C57BL/6J mice (total amount n=63) were obtained from the National Laboratory Animal Center (Taipei, Taiwan). After acclimatization for one week, all of the mice were randomly assigned into a control (CON) group and a high-fat diet (HFD) group. […] After HFD feeding for 8 weeks, the HFD group was randomly subdivided into six groups (n=9 per group) receiving different treatments and fed on HFD. […] The HF+AnK1, HF+AnK2, and HF+AnK3 groups are collectively termed AnK-treated HFD groups in the following examples. The CON mice were administered vehicle. All treatments were administered via oral gavage once daily. After administration for 4 weeks, all mice were fasted 12 hours, and blood was collected from the retro-orbital sinus under ether anesthesia. At the end of the experiment, the mice were sacrificed via carbon dioxide inhalation. Liver, adipose tissue, and skeletal muscle were collected and immediately stored at −80° C. for target gene analysis.
About 0.1 g of liver tissue, skeletal muscle, or adipose tissue was used for the homogenate samples. Samples were powdered under liquid nitrogen and homogenized for 20 seconds in 500 μL buffer containing 20 mM Tris-HCl (pH 7.4 at 4° C.), 2% SDS, 5 mM EDTA, 5 mM EGTA, 1 mM dithiothreitol (DTT), 100 mM NaF, 2 mM sodium vanadate, 0.5 mM phenylmethylsulfonyl fluoride, 10 μg/mL leupeptin, and 10 μL/mL pepstatin. The total membrane fraction was used for measurement. The protein concentration in supernatant was determined with a BCA protein assay kit (Thermo Scientific, Rockford, Ill., USA). […] The membrane was blocked with 5% slim milk in Tris-buffered saline (TBS)(Amersham BioSciences, Uppsala, Sweden) containing 0.05% Tween-20 (Bio Rad, CA, USA) and incubated overnight at 4° C. with antibodies at 1:200 dilution. […] Immunoreactive bands were detected with ECL reagent kit (GE Healthcare BioSciences, Buckinghamshire, UK). The intensity of Western blot signals was analyzed using AlphaEase FC software (Alpha Innotech Corporation, Randburg, South Africa). […]

[4] = tested on: high-fat diet-fed C57BL/6J mouse; assay: Body weight, tissue weights and food intake in HFD-fed mice; type: in vivo, C57BL/6J mice; details: HF + Feno: fenofibrate 250 mg/kg/day oral gavage 4 weeks
Excerpt: as §3
The metabolic parameters, including body weight, weight gain, and food intake, were performed as the following. Body weight was daily measured at the same time throughout the study. Body weight gain is considered as the weight difference between two consecutive days. The amount of pellet food was weighted, followed by weighting the amount of remaining food after 24 hours. The difference between the two weights is defined as daily food intake.

[5] = tested on: high-fat diet-fed C57BL/6J mouse; assay: Histopathology of epididymal white adipose tissue (adipocyte hypertrophy); type: in vivo, C57BL/6J mice; details: mean area of epididymal adipocyte; HF + Feno: fenofibrate 250 mg/kg/day oral gavage 4 weeks, HFD-fed mice
Protocol: as §1, §2
Adipocyte hypertrophy, the pathological enlargement of adipocytes, is often found in subjects with type 2 diabetes and hyperlipidemia. To verify the therapeutic effect of AnK on adipocyte hypertrophy, morphology of the epididymal white adipose tissue from mice of the HF group and the AnK-treated HFD groups was examined. Micrographs (magnification 200X) of the EWAT sections for each group were shown in FIG. 4 and analyzed to determine the mean area of an epididymal adipocyte.

[6] = tested on: phospho-AMPK (Thr^172)/total-AMPK; assay: AMPK phosphorylation in C2C12 cells (Western blotting); type: cell-based; details: AnK 1, 5, 10 and 25 μg/mL 30 min, insulin 100 nM 25 min, vs CON group
Protocol: (§4) For the in vitro assay, C2C12 skeletal myoblasts (ATCC CRL-1772) were cultured at 37° C. in Dulbecco's modified Eagle's medium (DMEM; Gibco BRL) supplemented with 10% fetal bovine serum (FBS; Hyclone) and 100 U/ml penicillin and 100 μg/ml streptomycin (Gibco BRL), and split 1:4 using 0.05% trypsin at 80% confluency. Myoblasts were diluted and placed in a 9 cm dish. Cells were cultured to achieve 80-90% confluency and refreshed with […] (2% FBS/DMEM) every 24 hours for 5-7 days. The term “confluency” refers to the proportion of the surface of a culture dish that is covered by adherent cells growing in the dish. 100% confluency refers to complete coverage of the surface by the cells.
(§5) Differentiated C2C12 cells were serum-starved in DMEM/BSA at 37° C. for 2 hours prior to incubation with AnK (at 1, 5, 10, and 25 μg/mL) or vehicle (0.2% dimethyl sulfoxide (DMSO) in saline) for 30 min or with 100 nM insulin for 25 min.
(§6) The abovementioned C2C12 cells were then washed three times with phosphate buffered saline (PBS) and divided into two groups. […]
(§7) Protein concentrations were determined via BCA assay (Pierce). […]
(§8) SDS polyacrylamide gel electrophoresis (SDS-PAGE) and Western blotting. Proteins were detected with antibodies specific for GLUT4, Akt, phospho-Akt (Ser^473), AMPK, and phospho-AMPK (Thr^172).

membrane GLUT4 [7] = assay: Membrane GLUT4 expression in C2C12 cells (Western blotting); type: cell-based; details: AnK 1, 5, 10 and 25 μg/mL 30 min, insulin 100 nM 25 min, vs CON group
Protocol: as §4, §5
The C2C12 cells of the other group were homogenized in a homogenization buffer having a pH value of about 7.4 and containing 250 mM sucrose, 50 mM Tris, and 0.2 mM edetic acid (EDTA). […]
as §7, §8

[8] = tested on: phospho-Akt (Ser^473)/total-Akt; assay: Akt phosphorylation in C2C12 cells (Western blotting); type: cell-based; details: AnK 1, 5, 10 and 25 μg/mL 30 min, insulin 100 nM 25 min, vs CON group
Protocol: as §4, §5, §6, §7, §8

Compound	Liver lipids total lipid [1] [mg/g]	Liver lipids triacylglycerol [1] [µmol/g]	Hepatocellular ballooning Mean score [2]	increase of membrane GLUT4 levels (membrane GLUT4 [3]) [fold]	Absolute tissue weight BAT [4] [g]	Absolute tissue weight EWAT [4] [g]	Absolute tissue weight Liver [4] [g]	Absolute tissue weight MWAT [4] [g]	Absolute tissue weight RWAT [4] [g]	Absolute tissue weight Skeletal muscle [4] [g]	Absolute tissue weight Spleen [4] [g]	Final body weight [4] [g]	Weight gain [4] [g]	Absolute tissue weight Visceral fat ([4]; sum of EWAT and RWAT) [g]	Adipocyte size [5] [μm^2]	expression ratio of phospho-AMPK (p-AMPK) to total-AMPK (t-AMPK) [6]	protein expression of membrane GLUT4 (membrane GLUT4 [7])	expression ratio of phospho-Akt (p-Akt) to total-Akt (t-Akt) [8]
CC(C)OC(=O)C(C)(C)Oc1ccc(C(=O)c2ccc(Cl)cc2)cc1 [Feno, fenofibrate, reference compound]	64.9 ± 5.1	47.3 ± 4.6	0.5 ± 0.1	1.98	0.157 ± 0.013	0.603 ± 0.041	1.700 ± 0.070	0.247 ± 0.025	0.181 ± 0.020	0.428 ± 0.026	0.084 ± 0.005	27.55 ± 0.84	0.57 ± 0.55	0.784 ± 0.052	6304.2 ± 316.9	–	–	–
insulin [reference compound]	–	–	–	–	–	–	–	–	–	–	–	–	–	–	–	higher	enhanced	higher
